Test results taken from ChEMBL document CHEMBL1138106, “The discovery of a potent and selective lethal factor inhibitor for adjunct therapy of anthrax infection” (Bioorg Med Chem Lett, 2006).

Experiments:
[1] = molecular target: T1, Lethal factor (Bacillus anthracis, UniProt P15917)
T1 sequence (P15917 whole entry): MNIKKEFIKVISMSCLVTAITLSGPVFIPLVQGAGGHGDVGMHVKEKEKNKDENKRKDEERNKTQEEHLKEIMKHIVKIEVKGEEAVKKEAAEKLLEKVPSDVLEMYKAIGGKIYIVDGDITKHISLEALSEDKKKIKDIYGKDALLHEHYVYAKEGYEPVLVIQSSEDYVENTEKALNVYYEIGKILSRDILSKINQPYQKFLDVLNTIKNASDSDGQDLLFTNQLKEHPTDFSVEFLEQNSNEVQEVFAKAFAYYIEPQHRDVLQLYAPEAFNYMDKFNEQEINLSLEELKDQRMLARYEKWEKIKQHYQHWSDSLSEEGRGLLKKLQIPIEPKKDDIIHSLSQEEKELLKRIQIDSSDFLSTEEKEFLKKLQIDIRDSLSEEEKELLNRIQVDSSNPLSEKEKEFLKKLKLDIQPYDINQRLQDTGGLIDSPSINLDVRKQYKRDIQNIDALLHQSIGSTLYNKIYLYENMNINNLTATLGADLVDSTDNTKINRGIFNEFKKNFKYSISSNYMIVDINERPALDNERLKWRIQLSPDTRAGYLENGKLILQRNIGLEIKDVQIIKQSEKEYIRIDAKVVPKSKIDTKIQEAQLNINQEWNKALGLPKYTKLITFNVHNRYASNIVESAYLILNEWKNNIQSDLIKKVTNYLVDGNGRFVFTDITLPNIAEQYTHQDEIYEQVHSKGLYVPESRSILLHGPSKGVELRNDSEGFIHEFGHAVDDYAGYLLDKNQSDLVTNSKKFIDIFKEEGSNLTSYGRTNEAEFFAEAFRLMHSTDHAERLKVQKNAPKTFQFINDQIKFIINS

[2] = molecular target: T1, Lethal factor; remark: listed apart in the source
[3] = molecular target: T1, Lethal factor; assay: Inhibition of LF

Row | SMILES | IC50 [1] [µM] | IC50 [2] [µM] | IC50 [3]
1 | CC[C@H](C)[C@@H](NS(=O)(=O)c1ccc(F)c(C)c1)C(=O)NO | 0.067 | 0.23 | 
2 | Cc1ccc(S(=O)(=O)N[C@@H](C(=O)NO)C(C)C)cc1F | 5.18 | > 20 | 
3 | CC(C)[C@@H](NS(=O)(=O)c1ccc(F)cc1)C(=O)NO | 0.29 | 3 | 
4 | COc1ccc(S(=O)(=O)N(CCc2ccsc2)[C@@H](C(=O)NO)C(C)C)cc1 | 2.1 |  | 
5 | Cc1cc(S(=O)(=O)N[C@@H](C(=O)NO)C2CC2)ccc1F | 0.12 | 0.73 | 
6 | Cc1cc(S(=O)(=O)N[C@@H](C(=O)NO)C2CCCC2)ccc1F | 0.064 | 0.17 | 
7 | CC(C)[C@@H](NS(=O)(=O)Cc1cccc(Cl)c1)C(=O)NO | 16.6 | > 20 | 
8 | CC(C)[C@@H](NS(=O)(=O)c1ccc(F)c(CO)c1)C(=O)NO | 0.6 | 3.74 | 
9 | Cc1cc(S(=O)(=O)N[C@@H](C(=O)NO)C(C)(C)C)ccc1F | 0.3 | 2.3 | 
10 | CC(C)[C@@H](NS(=O)(=O)c1ccc(F)c2ccccc12)C(=O)NO | 0.46 | 2.76 | 
11 | Cc1cc(S(=O)(=O)N[C@@H](C(=O)NO)c2ccccc2)ccc1F | 0.05 | 0.37 | 
12 | Cc1cc(S(=O)(=O)N[C@@H](C(=O)NO)C2CCC2)ccc1F | 0.13 | 0.67 | 
13 | CC(C)[C@@H](NS(=O)(=O)c1cccc(F)c1)C(=O)NO | 2.8 | 12.4 | 
14 | CC(C)[C@@H](NS(=O)(=O)c1ccc(F)cc1CO)C(=O)NO | 1.31 | > 20 | 
15 | Cc1cc(S(=O)(=O)N[C@@H](C(=O)NO)C(C)C)ccc1F |  | 0.12 | 
16 | Cc1cc(S(=O)(=O)N[C@@H](C(=O)NO)C(C)C)ccc1OCc1ccccc1 | > 40 | > 20 | 
17 | Cc1ccc(S(=O)(=O)N[C@@H](C(=O)NO)C(C)C)cc1 | 3 | 15 | 
18 | CC(C)[C@@H](NS(=O)(=O)c1ccc(Oc2ccccc2)cc1)C(=O)NO | > 40 | > 20 | 
19 | Cc1cc(S(=O)(=O)NC(CCc2c[nH]cn2)C(=O)NO)ccc1F (racemic) | 0.075 | 2.8 | 
20 | Cc1cc(S(=O)(=O)N[C@@H](C(=O)NO)[C@@H](C)C2CC2)ccc1F | 0.065 | 0.46 | 
21 | CC(C)[C@@H](NS(=O)(=O)CC(F)(F)F)C(=O)NO | > 40 | > 40 | 
22 | CC(C)[C@@H](NS(=O)(=O)c1ccc(C(F)(F)F)cc1)C(=O)NO | > 40 | > 20 | 
23 | CCCCOc1ccc(S(=O)(=O)N[C@@H](C(=O)NO)C(C)C)cc1 | > 40 | > 20 | 
24 | Cc1cc(S(=O)(=O)N[C@@H](C(=O)NO)C(C)C)ccc1O | 1.64 | > 20 | 
25 | Cc1cc(S(=O)(=O)N[C@H](CCNC(=O)CN)C(=O)NO)ccc1F | 0.037 | 7.4 | 

Row | SMILES | IC50 [1] [µM] | IC50 [2] [µM] | IC50 [3]
26 | Cc1cc(S(=O)(=O)N[C@@H](C(=O)NO)C2CCCCC2)ccc1F | 0.042 | 0.19 | 
27 | Cc1cc(S(=O)(=O)N[C@H](CC2CC2)C(=O)NO)ccc1F | 0.051 | 0.13 | 
28 | CC(C)[C@@H](NS(=O)(=O)c1ccccc1)C(=O)NO | 1.1 | 7.8 | 
29 | CC[C@@H](NS(=O)(=O)c1ccc(F)c(C)c1)C(=O)NO | 0.1 | 0.49 | 
30 | Cc1cccc(S(=O)(=O)N[C@@H](C(=O)NO)C(C)C)c1 | 0.4 | 1.29 | 
31 | COc1ccc(S(=O)(=O)N(C)[C@@H](C(=O)NO)C(C)C)cc1 |  | 17 | 
32 | Cc1cc(S(=O)(=O)N[C@H](CCNC(=O)C(C)(C)N)C(=O)NO)ccc1F | 0.057 | 8.7 | 
33 | Cc1cc(S(=O)(=O)N[C@H](C)C(=O)NO)ccc1F | 0.13 | 2.1 | 
34 | Cc1cc(S(=O)(=O)N[C@H](CCOCCN)C(=O)NO)ccc1F | 0.048 | 3.5 | 
35 | COc1ccc(S(=O)(=O)N(CCn2ccnc2)[C@@H](C(=O)NO)C(C)C)cc1 | 19.1 |  | 
36 | CC(C)[C@@H](NS(=O)(=O)c1ccc(-c2ccccc2)cc1)C(=O)NO | > 40 | > 20 | 
37 | CC(C)[C@@H](NS(=O)(=O)c1ccc(-c2cnns2)s1)C(=O)NO | 0.81 | 10.2 | 
38 | Cc1cc(S(=O)(=O)N[C@H](CCNC(=O)[C@H](C)N)C(=O)NO)ccc1F | 0.059 | 7.47 | 
39 | CCCC[C@@H](NS(=O)(=O)c1ccc(F)c(C)c1)C(=O)NO | 0.07 | 0.41 | 
40 | CC(C)[C@@H](NS(=O)(=O)CCc1ccccc1)C(=O)NO | 11.9 | > 20 | 
41 | COc1ccc(S(=O)(=O)N(Cc2ccncc2)[C@@H](C(=O)NO)C(C)C)cc1 | 3.1 | 9.5 | 
42 | CC(C)[C@@H](NS(=O)(=O)c1ccc(Cl)s1)C(=O)NO | 1.31 | 6.45 | 
43 | Cc1cc(S(=O)(=O)N[C@@H](C(=O)NO)[C@H]2CCOC2)ccc1F | 0.12 | 0.45 | 
44 | COc1ccc(S(=O)(=O)N[C@@H]2CCN(O)C2=O)cc1 | > 40 | > 40 | 
45 | COc1ccc(S(=O)(=O)N(Cc2cccnc2)[C@@H](C(=O)NO)C(C)C)cc1.Cl [CGS-27023A] | 1.2 | 12 | Active
46 | COc1ccc(S(=O)(=O)N[C@@H](C(=O)NO)C(C)C)cc1 | 0.9 | 7.3 | 
47 | Cc1cc(S(=O)(=O)N[C@H](CCCN=C(N)N)C(=O)NO)ccc1F | 0.04 | 1.7 | 
48 | CC(=O)N(Cc1cccnc1)[C@@H](C(=O)NO)C(C)C | > 40 | > 20 | 
49 | CC[C@@H](C)[C@@H](NS(=O)(=O)c1ccc(F)c(C)c1)C(=O)NO | 0.067 | 0.13 | 
50 | CC(C)[C@@H](NS(=O)(=O)c1ccccc1F)C(=O)NO | 6.6 | > 20 | 
